Bounds are passed on as bounds.

The target in this assay is T1, human plasma protein factor Xa (Homo sapiens, UniProt P00742).
T1 construct: measure proteolytic activity of the enzyme (factor Xa); purchased Haematologic Technologies (Essex Junction, Vt.); host or cells: human plasma
T1 sequence (P00742 235-488 limits assumed): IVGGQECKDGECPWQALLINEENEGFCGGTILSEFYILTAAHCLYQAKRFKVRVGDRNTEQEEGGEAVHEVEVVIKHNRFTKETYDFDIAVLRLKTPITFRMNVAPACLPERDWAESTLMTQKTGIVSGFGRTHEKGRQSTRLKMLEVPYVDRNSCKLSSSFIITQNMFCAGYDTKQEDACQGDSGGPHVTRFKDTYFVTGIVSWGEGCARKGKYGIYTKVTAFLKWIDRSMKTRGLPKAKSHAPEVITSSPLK
T1 sequence (P00742 41-179 partner limits assumed): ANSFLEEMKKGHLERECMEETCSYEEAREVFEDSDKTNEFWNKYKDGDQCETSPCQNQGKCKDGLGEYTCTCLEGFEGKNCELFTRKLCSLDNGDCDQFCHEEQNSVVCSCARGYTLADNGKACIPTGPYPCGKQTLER
The assay is described as follows: Factor Xa IC50 determination (cleavage of chromogenic substrate S-2765). The class given is biochemical. Particulars: fXa 1 nM, S-2765 100 μM, Tris buffered saline pH 7.4, room temperature. The essentials: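 Human plasma factor Xa (1 nM) preincubated 5 min at room temperature with inhibitor (0.01 nM–10 μM final) in Tris-buffered saline pH 7.4 with CaCl2, BSA and 5% DMSO. S-2765 added at 100 μM; pNA release at 405 nm over 2 min; initial velocities fitted to four-parameter equation for IC50, duplicates.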
As a reminder, the IC50 is the concentration needed to halve the response being measured. A higher IC50 goes with weaker potency. Take `Cc1ccccc1C(NC(=O)Nc1ccc(Cl)cc1)C(=O)Nc1ccc(-c2ccccc2CN(C)C)cc1` (stereo not shown) [Example 89, N-[4-(2-dimethylaminomethyl-phenyl)phenyl]-2-(2-methylphenyl)-2-(4-chlorophenylaminocarbonylamino)-acetamide]: the IC50 is no more than 100 nM.

Compound `Cc1ccccc1C(NC(=O)Nc1ccc(Cl)cc1)C(=O)NC1CCN(C(C)C)CC1` (stereo not shown) [Example 90, N-(1-isopropylpiperidin-4-yl)-2-(2-methylphenyl)-2-(4-chlorophenylamino-carbonylamino)-acetamide] returned an IC50 of no less than 500 nM.

Consider `Cc1ccccc1C(NC(=O)Nc1ccc(Cl)cc1)C(=O)N1CCN(C2CCN(C)CC2)CC1` (stereo not shown) [Example 91], for which the IC50 is no more than 100 nM.

`Cc1ccccc1C(NC(=O)Nc1ccc(Cl)cc1)C(=O)Nc1ccc(N2CCCN(C)CC2)cc1` (stereo not shown) [Example 92, N-[4-(4-methyl-homopiperazinyl)phenyl]-2-(2-methylphenyl)-2-(4-chlorophenylaminocarbonylamino)-acetamide] gave an IC50 of no more than 100 nM.

In the case of `Cc1ccccc1C(NC(=O)Nc1ccc(Cl)cc1)C(=O)NCC1CCN(c2ccncc2)CC1` (stereo not shown) [Example 93, N-[1-(pyridin-4-yl)piperidin-4-yl]methyl-2-(2-methylphenyl)-2-(4-chlorophenylaminocarbonylamino)-acetamide], the IC50 was no more than 100 nM.

As for `Cc1ccccc1C(NC(=O)Nc1ccc(Cl)cc1)C(=O)Nc1ccc(C(=O)N2CCCC2)cc1` (stereo not shown) [Example 94, N-[4-(pyrrolidin-1-ylcarbonyl)phenyl]-2-(2-methylphenyl)-2-(4-chlorophenylaminocarbonylamino)-acetamide], the IC50 is no more than 100 nM.

Compound `Cc1ccccc1C(NC(=O)Nc1ccc(Cl)cc1)C(=O)Nc1ccc(N2CCOCC2=O)cc1` (stereo not shown) [Example 95, N-[4-(3-oxo-morpholin-4-yl)phenyl]-2-(2-methylphenyl)-2-(4-chlorophenylaminocarbonylamino)-acetamide] returned an IC50 of no more than 100 nM.

In turn, `Cc1ccccc1C(NC(=O)Nc1ccc(Cl)cc1)C(=O)Nc1ccc(N(C)c2ccncc2)cc1` (stereo not shown) [Example 96, N-[4-(N-methyl-N-pyridin-4-yl-amino)phenyl]-2-(2-methylphenyl)-2-(4-chlorophenylaminocarbonylamino)-acetamide] yielded a half-inhibitory concentration (IC50) of no more than 100 nM.

As to `Cc1ccccc1C(NC(=O)Nc1ccc(Cl)cc1)C(=O)Nc1ccc(C(=O)N2CCSC2)cc1` (stereo not shown) [Example 97, N-[4-(thiazolidin-3-ylcarbonyl)phenyl]-2-(2-methylphenyl)-2-(4-chlorophenylaminocarbonylamino)-acetamide], the IC50 is no more than 100 nM.

In the case of `Cc1ccccc1C(NC(=O)Nc1ccc(Cl)cc1)C(=O)Nc1ccc(C(=O)N2CCOC2)cc1` (stereo not shown) [Example 98, N-[4-(oxazolidin-3-ylcarbonyl)phenyl]-2-(2-methylphenyl)-2-(4-chlorophenylaminocarbonylamino)-acetamide], the IC50 is no more than 100 nM.

For the compound `O=C(Nc1ccc(Cl)cc1)NC(C(=O)Nc1ccc(-c2cccc[n+]2[O-])cc1)c1ccccc1Cl` (stereo not shown) [Example 99, N-[4-(N-oxo-pyridin-2-yl)phenyl]-2-(2-chlorophenyl)-2-(4-chlorophenylaminocarbonylamino)-acetamide], the IC50 was no more than 100 nM.

The compound `CN(C)C(=N)c1ccc(NC(=O)C(NC(=O)Nc2ccc(Cl)cc2)c2ccccc2Cl)cc1` (stereo not shown) [Example 100, N-[4-(dimethylaminoimino)phenyl]-2-(2-chlorophenyl)-2-(4-chlorophenylaminocarbonylamino)-acetamide] registered an IC50 of no more than 100 nM.

`N=C(c1ccc(NC(=O)C(NC(=O)Nc2ccc(Cl)cc2)c2ccccc2Cl)cc1)N1CCCC1` (stereo not shown) [Example 101] had an IC50 of no more than 100 nM.

`CN1CCCN(c2ccc(NC(=O)C(NC(=O)Nc3ccc(Cl)cc3)c3ccccc3Cl)cc2)CC1` (stereo not shown) [Example 102, N-[4-(4-methyl-homopiperazinyl)phenyl]-2-(2-chlorophenyl)-2-(4-chlorophenylaminocarbonylamino)-acetamide]: the 50% inhibitory concentration (IC50) is no more than 100 nM.

Consider `CC(C)N1CCC(NC(=O)C(NC(=O)Nc2ccc(Cl)cc2)c2ccccc2Cl)CC1` (stereo not shown) [Example 103, N-(1-isopropylpiperidin-4-yl)-2-(2-chlorophenyl)-2-(4-chlorophenylamino-carbonylamino)-acetamide], for which the IC50 is no less than 500 nM.

Consider `CN1CCC(N2CCN(C(=O)C(NC(=O)Nc3ccc(Cl)cc3)c3ccccc3Cl)CC2)CC1` (stereo not shown) [Example 104, N-[4-(1-methylpiperidin-4-yl)piperazin-1-yl]-2-(2-chlorophenyl)-2-(4-chlorophenylaminocarbonylamino)-acetamide], for which the IC50 was no more than 100 nM.

For `O=C(Nc1ccc(Cl)cc1)NC(C(=O)NCC1CCN(c2ccncc2)CC1)c1ccccc1Cl` (stereo not shown) [Example 105, N-[1-(pyridin-4-yl)piperidin-4-yl]methyl-2-(2-chlorophenyl)-2-(4-chlorophenylaminocarbonylamino)-acetamide], the IC50 is no more than 100 nM.

In turn, `COc1ccccc1C(NC(=O)Nc1ccc(Cl)cc1)C(=O)Nc1ccc(C2=NCCN2C)cc1` (stereo not shown) [Example 106, N-[4-(1-methyl-4,5-dihydro-1H-imidazol-2-yl)phenyl]-2-(2-methoxyphenyl)-2-(4-chlorophenylaminocarbonylamino)-acetamide] displayed an IC50 of no more than 100 nM.

`COc1ccccc1C(NC(=O)Nc1ccc(Cl)cc1)C(=O)Nc1ccc(-c2cccc[n+]2[O-])cc1` (stereo not shown) [Example 107, N-[4-(N-oxo-pyridin-2-yl)phenyl]-2-(2-methoxyphenyl)-2-(4-chlorophenylaminocarbonylamino)-acetamide] registered an IC50 of no more than 100 nM.

For `COc1ccccc1C(NC(=O)Nc1ccc(Cl)cc1)C(=O)NCC1CCN(c2ccncc2)CC1` (stereo not shown) [Example 108, N-[1-(pyridin-4-yl)piperidin-4-yl]methyl-2-(2-methoxyphenyl)-2-(4-chlorophenylaminocarbonylamino)-acetamide], the IC50 is no more than 100 nM.

As to `COc1ccccc1C(NC(=O)Nc1ccc(Cl)cc1)C(=O)N1CCN(C2CCN(C)CC2)CC1` (stereo not shown) [Example 109, N-[4-(1-methylpiperidin-4-yl)piperazin-1-yl]-2-(2-methoxyphenyl)-2-(4-chlorophenylaminocarbonylamino)-acetamide], the 50% inhibitory concentration (IC50) is no more than 100 nM.

Consider `COc1ccccc1C(NC(=O)Nc1ccc(Cl)cc1)C(=O)NC1CCN(C(C)C)CC1` (stereo not shown) [Example 110, N-(1-isopropylpiperidin-4-yl)-2-(2-methoxyphenyl)-2-(4-chlorophenylamino-carbonylamino)-acetamide], for which the IC50 is no less than 500 nM.

For `COc1ccccc1C(NC(=O)Nc1ccc(Cl)cc1)C(=O)Nc1ccc(N2CCCN(C)CC2)cc1` (stereo not shown) [Example 111, N-[4-(4-methyl-homopiperazinyl)phenyl]-2-(2-methoxyphenyl)-2-(4-chlorophenylaminocarbonylamino)-acetamide], the IC50 is no more than 100 nM.

In turn, `COc1ccccc1C(NC(=O)Nc1ccc(Cl)cc1)C(=O)Nc1ccc(C(=N)N(C)C)cc1` (stereo not shown) [Example 112, N-[4-(dimethylaminoimino)phenyl]-2-(2-methoxyphenyl)-2-(4-chlorophenylaminocarbonylamino)-acetamide] came in with an IC50 of no more than 100 nM.

In the case of `COc1ccccc1C(NC(=O)Nc1ccc(Cl)cc1)C(=O)Nc1ccc(C(=N)N2CCCC2)cc1` (stereo not shown) [Example 113], the IC50 is no more than 100 nM.

Compound `CN1CCN=C1c1ccc(NC(=O)C(NC(=O)Nc2ccc(Cl)cc2)c2ccccc2I)cc1` (stereo not shown) [Example 114, N-[4-(1-methyl-4,5-dihydro-1H-imidazol-2-yl)phenyl]-2-(2-iodophenyl)-2-(4-chlorophenylaminocarbonylamino)-acetamide] registered a half-inhibitory concentration (IC50) of no more than 100 nM.

Regarding `O=C(Nc1ccc(Cl)cc1)NC(C(=O)Nc1ccc(-c2cccc[n+]2[O-])cc1)c1ccccc1I` (stereo not shown) [Example 115, N-[4-(N-oxo-pyridin-2-yl)phenyl]-2-(2-iodophenyl)-2-(4-chlorophenylamino-carbonylamino)-acetamide], the IC50 is no more than 100 nM.

The compound `CN(C)C(=N)c1ccc(NC(=O)C(NC(=O)Nc2ccc(Cl)cc2)c2ccccc2I)cc1` (stereo not shown) [Example 116, N-[4-(dimethylaminoimino)phenyl]-2-(2-iodophenyl)-2-(4-chlorophenylaminocarbonylamino)-acetamide] showed an IC50 of no more than 100 nM.

As to `N=C(c1ccc(NC(=O)C(NC(=O)Nc2ccc(Cl)cc2)c2ccccc2I)cc1)N1CCCC1` (stereo not shown) [Example 117], the IC50 was no more than 100 nM.

`CN1CCC(N2CCN(C(=O)C(NC(=O)Nc3ccc(Cl)cc3)c3ccccc3I)CC2)CC1` (stereo not shown) [Example 118] returned an IC50 of no more than 100 nM.

In turn, `CN1CCN=C1c1ccc(NC(=O)C(NC(=O)Nc2ccc(Cl)cc2)c2ccc(Br)cc2)cc1` (stereo not shown) [Example 119, N-[4-(1-methyl-4,5-dihydro-1H-imidazol-2-yl)phenyl]-2-(4-bromophenyl)-2-(4-chlorophenylaminocarbonylamino)-acetamide] yielded a half-maximal inhibitory concentration (IC50) of no more than 100 nM.

`CN1CCN=C1c1ccc(NC(=O)C(NC(=O)Nc2ccc(Cl)cc2)c2ccccc2OC(F)(F)F)cc1` (stereo not shown) [Example 120, N-[4-(1-methyl-4,5-dihydro-1H-imidazol-2-yl)phenyl]-2-(2-trifluoromethoxyphenyl)-2-(4-chlorophenylaminocarbonylamino)-acetamide] had an IC50 of no more than 100 nM.

`O=C(Nc1ccc(Cl)cc1)NC(C(=O)Nc1ccc(-c2cccc[n+]2[O-])cc1)c1ccccc1OC(F)(F)F` (stereo not shown) [Example 121, N-[4-(N-oxo-pyridin-2-yl)phenyl]-2-(2-trifluoromethoxyphenyl)-2-(4-chlorophenylaminocarbonylamino)-acetamide] displayed an IC50 of no more than 100 nM.

As for `CN1CCN=C1c1ccc(NC(=O)C(NC(=O)Nc2ccc(Cl)cc2)c2ccccc2SC(F)(F)F)cc1` (stereo not shown) [Example 122, N-[4-(1-methyl-4,5-dihydro-1H-imidazol-2-yl)phenyl]-2-(2-trifluoromethylthiophenyl)-2-(4-chlorophenylaminocarbonylamino)-acetamide], the IC50 was no more than 100 nM.
